# From ChEMBL document CHEMBL1144317, “Antimitotic activity and reversal of breast cancer resistance protein-mediated drug resistance by stilbenoids from Bletilla striata” (Bioorg Med Chem Lett, 2005)
# Biological target: Beta tubulin
# Assay: Inhibition of tubulin polymerization interacting at the colchicine binding site.
# Assay type: functional
row,SMILES,IC50 [µM]
1,COc1c(O)ccc2c1ccc1c(Cc3ccc(O)cc3)c(O)cc(OC)c12,30
2,COc1c(Cc2ccc(O)cc2)c(O)c(Cc2ccc(O)cc2)c2c1-c1ccc(O)cc1CC2,30
3,COc1cc(O)c(Cc2ccc(O)cc2)c(CCc2cccc(O)c2)c1Cc1ccc(O)cc1,10
4,COc1cc(O)cc(CCc2cccc(O)c2)c1Cc1ccc(O)cc1,10
5,COc1cc(O)c(-c2c(O)cc3c(c2OC)-c2ccc(O)cc2CC3)c2c1-c1ccc(O)cc1CC2,30
6,COc1cc(O)c2c(c1Cc1ccc(O)cc1)CCc1cc(O)ccc1-2,300
7,COc1cc(O)c(-c2c(O)cc(OC)c3c2ccc2cc(O)ccc23)c2ccc3cc(O)ccc3c12 [CIRRHOPETALANTHIN],30
8,COc1cc(O)c(-c2c(O)cc(OC)c3c2ccc2cc(O)ccc23)c2c1-c1ccc(O)cc1CC2 [CIRRHOPETALANTHRIN],30
9,CC[C@]1(O)C[C@@H]2CN(CCc3c([nH]c4ccccc34)[C@@](C(=O)OC)(c3cc4c(cc3OC)N(C)[C@H]3[C@@](O)(C(=O)OC)[C@H](OC(C)=O)[C@]5(CC)C=CCN6CC[C@]43[C@@H]65)C2)C1 [VINBLASTINE],1
